Assay [1] has as its system Puccinia recondita f. Sp. Tritici. As to the kind of experiment: Puccinia recondita f. sp. tritici / wheat / leaf disc preventative (brown rust). The class given is in vivo. The following applies: foliar, read-out: disease control. The procedure: Leaf disks or leaf segments of various plant species are cut from plants grown in a greenhouse. The cut leaf disks or segments are placed in multiwell plates (24-well format) onto water agar. The leaf disks are sprayed with a test solution before (preventative) or after (curative) inoculation. Compounds to be tested are prepared as DMSO solutions (max. 10 mg/ml) which are diluted to the appropriate concentration with 0.025% Tween20 just before spraying. The inoculated leaf disks or segments are incubated under defined conditions (temperature, relative humidity, light, etc.) according to the respective test system. A single evaluation of disease level is carried out 3 to 14 days after inoculation, depending on the pathosystem. Percent disease control relative to the untreated check leaf disks or segments is then calculated.
Example 1: Fungicidal Activity Against Puccinia recondita f. Sp. Tritici/Wheat/Leaf Disc Preventative (Brown Rust)
Wheat leaf segments cv. Kanzler were placed on agar in multiwell plates (24-well format) and sprayed with the Formulated test compound diluted in water. The leaf disks were inoculated with a spore suspension of the fungus 1 day after application. The inoculated leaf segments were incubated at 19° C. and 75% relative humidity (rh) under a light regime of 12 hours light/12 hours darkness in a climate cabinet and the activity of a compound was assessed as percent disease control compared to untreated when an appropriate level of disease damage appears in untreated check leaf segments (7 to 9 days after application).
The following compounds at 200 ppm in the applied Formulation give at least 80% disease control in this test when compared to untreated control leaf disks under the same conditions, which show extensive disease development.

Assay [2] has as its system Glomerella lacenarium (Colletotrichum lacenarium). Put plainly: Glomerella lacenarium (Colletotrichum lacenarium) liquid culture / cucumber / preventative (anthracnose). It is filed as cell-based. The note with it: read-out: disease control. The procedure:
Mycelia fragments or conidia suspensions of a fungus prepared either freshly from liquid cultures of the fungus or from cryogenic storage, are directly mixed into nutrient broth. DMSO solutions of the test compound (max. 10 mg/ml) are diluted with 0.025% Tween20 by a factor of 50 and 10 μl of this solution is pipetted into a microtiter plate (96-well format). The nutrient broth containing the fungal spores/mycelia fragments is then added to give an end concentration of the tested compound. The test plates are incubated in the dark at 24° C. and 96% relative humidity. The inhibition of fungal growth is determined photometrically after 2 to 7 days, depending on the pathosystem, and percent antifungal activity relative to the untreated check is calculated.
Example 4: Fungicidal Activity Against Glomerella lacenarium (Colletotrichum lacenarium) Liquid Culture/Cucumber/Preventative (Anthracnose)
Conidia of the fungus from cryogenic storage are directly mixed into nutrient broth (PDB-potato dextrose broth). After placing a (DMSO) solution of test compound into a microtiter plate (96-well format), the nutrient broth containing the fungal spores is added. The test plates are incubated at 24° C. and the inhibition of growth is measured photometrically 3 to 4 days after application.
The following compounds at 20 ppm in the applied Formulation give at least 80% disease control in this test when compared to untreated control under the same conditions, which show extensive disease development.

The mark [3] stands for this setting: 200 ppm in the applied formulation, wheat leaf segments cv. Kanzler, inoculated 1 day after application, vs untreated, 7 to 9 days after application.
[4] abbreviates: 20 ppm, liquid culture in PDB, 24° C., inhibition of growth measured photometrically 3 to 4 days after application, vs untreated.

The structures appear in SMILES notation. Read-outs that look alike come from different tables or passages of the source.

For `CC(C)(C)OC(=O)NC(C(=O)Nc1ccc(-c2noc(C(F)(F)F)n2)cc1)c1ccccc1` (stereo not shown) [Compound 1.18, tert-butyl N-[2-oxo-1-phenyl-2-[4-[5-(trifluoromethyl)-1,2,4-oxadiazol-3-yl]anilino]ethyl] carbamate], the pest or weed control at 200 ppm in assay [1] (setting [3]) was ≥ 80%.
Consider `O=C(CF)Nc1ccc(-c2noc(C(F)(F)F)n2)cc1` [Compound 1.19, 2-fluoro-N-[4-[5-(trifluoromethyl)-1,2,4-oxadiazol-3-yl]phenyl]acetamide], for which the inhibition of growth at 20 ppm in assay [2] was ≥ 80%. For the same compound, in assay [1], the pest or weed control at 200 ppm is ≥ 80%.
As for `CC=CC=CC(=O)NC1(C(=O)Nc2ccc(-c3noc(C(F)(F)F)n3)cc2)CCCC(C)C1` (stereo not shown) [Compound 1.21, 1-(hexa-2,4-dienoylamino)-3-methyl-N-[4-[5-(trifluoromethyl)-1,2,4-oxadiazol-3-yl]phenyl]cyclo-hexanecarboxamide], in assay [1] (setting [3]), the pest or weed control at 200 ppm was ≥ 80%.
As to `CC(=O)Nc1ccc(CC(=O)Nc2ccc(-c3noc(C(F)(F)F)n3)cc2)cc1` [Compound 1.26, 2-(4-acetamidophenyl)-N-[4-[5-(trifluoromethyl)-1,2,4-oxadiazol-3-yl]phenyl]acetamide], in assay [1] (setting [3]), the pest or weed control at 200 ppm was ≥ 80%.
Consider `O=C(CSc1ccccc1)Nc1ccc(-c2noc(C(F)(F)F)n2)cc1` [Compound 1.44, 2-phenylsulfanyl-N-[4-[5-(trifluoromethyl)-1,2,4-oxadiazol-3-yl]phenyl]acetamide], for which the inhibition of growth at 20 ppm in assay [2] (setting [4]) is ≥ 80%. Moreover, the pest or weed control at 200 ppm in assay [1] (setting [3]) is ≥ 80%.
`O=C(Cc1ccc2c(c1)OCO2)Nc1ccc(-c2noc(C(F)(F)F)n2)nc1` [Compound 1.48, 2-(1,3-benzodioxol-5-yl)-N-[6-[5-(trifluoromethyl)-1,2,4-oxadiazol-3-yl]-3-pyridyl]acetamide]: the inhibition of growth at 20 ppm in assay [2] (setting [4]) was ≥ 80%.
Turning to `N#Cc1cc(F)c(C(=O)Nc2ccc(-c3noc(C(F)(F)F)n3)nc2)c(F)c1` [Compound 1.49, 4-cyano-2,6-difluoro-N-[6-[5-(trifluoromethyl)-1,2,4-oxadiazol-3-yl]-3-pyridyl]benzamide], in assay [1] (setting [3]), the pest or weed control at 200 ppm is ≥ 80%.
Turning to `CON(C)C(=O)Nc1ccc(-c2noc(C(F)(F)F)n2)nc1` [Compound 1.65, 1-methoxy-1-methyl-3-[6-[5-(trifluoromethyl)-1,2,4-oxadiazol-3-yl]-3-pyridyl]urea], in assay [2] (setting [4]), the inhibition of growth at 20 ppm is ≥ 80%.
With `O=C(CCc1ccccc1)Nc1ccc(-c2noc(C(F)(F)F)n2)cc1` [Compound 1.76, 3-phenyl-N-[4-[5-(trifluoromethyl)-1,2,4-oxadiazol-3-yl]phenyl] propanamide], the inhibition of growth at 20 ppm in assay [2] (setting [4]) was ≥ 80%. In addition, the pest or weed control at 200 ppm in assay [1] (setting [3]) was ≥ 80%.
For `CC(Oc1ccccc1)C(=O)Nc1ccc(-c2noc(C(F)(F)F)n2)cc1` (stereo not shown) [Compound 1.79, 2-phenoxy-N-[4-[5-(trifluoromethyl)-1,2,4-oxadiazol-3-yl]phenyl] propanamide], in assay [2] (setting [4]), the inhibition of growth at 20 ppm is ≥ 80%.
As for `O=C(CC1CC1)Nc1ccc(-c2noc(C(F)(F)F)n2)cc1` [Compound 1.80, 2-cyclopropyl-N-[4-[5-(trifluoromethyl)-1,2,4-oxadiazol-3-yl]phenyl]acetamide], the inhibition of growth at 20 ppm in assay [2] (setting [4]) is ≥ 80%. For the same compound, in assay [1] (setting [3]), the pest or weed control at 200 ppm is ≥ 80%.
For the compound `O=C(Nc1ccc(-c2noc(C(F)(F)F)n2)cc1)C1CSC1` [Compound 1.82, N-[4-[5-(trifluoromethyl)-1,2,4-oxadiazol-3-yl]phenyl]thietane-3-carboxamide], the inhibition of growth at 20 ppm in assay [2] (setting [4]) was ≥ 80%. For the same compound, the pest or weed control at 200 ppm in assay [1] (setting [3]) is ≥ 80%.
Regarding `COC(=O)CCC(=O)Nc1ccc(-c2noc(C(F)(F)F)n2)cc1` [Compound 1.83, methyl 4-oxo-4-[4-[5-(trifluoromethyl)-1,2,4-oxadiazol-3-yl]anilino]butanoate], the inhibition of growth at 20 ppm in assay [2] (setting [4]) is ≥ 80%. The pest or weed control at 200 ppm in assay [1] (setting [3]) is ≥ 80%.
Regarding `O=C(Cc1cccnc1)Nc1ccc(-c2noc(C(F)(F)F)n2)cc1` [Compound 1.84, 2-(3-pyridyl)-N-[4-[5-(trifluoromethyl)-1,2,4-oxadiazol-3-yl]phenyl]acetamide], in assay [2] (setting [4]), the inhibition of growth at 20 ppm is ≥ 80%. The pest or weed control at 200 ppm in assay [1] (setting [3]) was ≥ 80%.
`C=CCCC(=O)Nc1ccc(-c2noc(C(F)(F)F)n2)cc1` [Compound 1.88, N-[4-[5-(trifluoromethyl)-1,2,4-oxadiazol-3-yl]phenyl]pent-4-enamide]: in assay [2] (setting [4]), the inhibition of growth at 20 ppm is ≥ 80%. The pest or weed control at 200 ppm in assay [1] (setting [3]) is ≥ 80%.
Regarding `O=C(Cc1cccs1)Nc1ccc(-c2noc(C(F)(F)F)n2)cc1` [Compound 1.89, 2-(2-thienyl)-N-[4-[5-(trifluoromethyl)-1,2,4-oxadiazol-3-yl]phenyl]acetamide], the inhibition of growth at 20 ppm in assay [2] (setting [4]) is ≥ 80%. For the same compound, in assay [1] (setting [3]), the pest or weed control at 200 ppm was ≥ 80%.
For the compound `C=CCCCCC(=O)Nc1ccc(-c2noc(C(F)(F)F)n2)cc1` [Compound 1.93, N-[4-[5-(trifluoromethyl)-1,2,4-oxadiazol-3-yl]phenyl]hept-6-enamide], the inhibition of growth at 20 ppm in assay [2] (setting [4]) was ≥ 80%.
In the case of `O=C(Cc1ccc(C(F)(F)F)nc1)Nc1ccc(-c2noc(C(F)(F)F)n2)cc1` [Compound 1.108, N-[4-[5-(trifluoromethyl)-1,2,4-oxadiazol-3-yl]phenyl]-2-[6-(trifluoromethyl)-3-pyridyl]acetamide], the inhibition of growth at 20 ppm in assay [2] (setting [4]) is ≥ 80%.
Take `CC(C)CCC(=O)Nc1ccc(-c2noc(C(F)(F)F)n2)cc1` [Compound 1.110, 4-methyl-N-[4-[5-(trifluoromethyl)-1,2,4-oxadiazol-3-yl]phenyl] pentanamide]: in assay [2] (setting [4]), the inhibition of growth at 20 ppm was ≥ 80%.
In the case of `O=C(Cc1cccc(C(F)(F)F)n1)Nc1ccc(-c2noc(C(F)(F)F)n2)cc1` [Compound 1.114, N-[4-[5-(trifluoromethyl)-1,2,4-oxadiazol-3-yl]phenyl]-2-[6-(trifluoromethyl)-2-pyridyl]acetamide], the inhibition of growth at 20 ppm in assay [2] (setting [4]) was ≥ 80%.
Same read-out and setting: as for `O=C(Cc1cc(F)cc(F)c1)Nc1ccc(-c2noc(C(F)(F)F)n2)cc1` [Compound 1.117, 2-(3,5-difluorophenyl)-N-[4-[5-(trifluoromethyl)-1,2,4-oxadiazol-3-yl]phenyl]acetamide], the figure is ≥ 80%; as for `O=C(Cc1ccc(OC(F)(F)F)cc1)Nc1ccc(-c2noc(C(F)(F)F)n2)cc1` [Compound 1.119, 2-[4-(trifluoromethoxy)phenyl]-N-[4-[5-(trifluoromethyl)-1,2,4-oxadiazol-3-yl]phenyl]acetamide], ≥ 80%; as for `CN(C(=O)c1ccccc1Cl)c1ccc(-c2noc(C(F)(F)F)n2)cc1` [Compound 1.134, 2-chloro-N-methyl-N-[4-[5-(trifluoromethyl)-1,2,4-oxadiazol-3-yl]phenyl]benzamide], ≥ 80%.
Regarding `CCOCC(=O)Nc1ccc(-c2noc(C(F)(F)F)n2)cc1` [Compound 2.10, 2-ethoxy-N-[4-[5-(trifluoromethyl)-1,2,4-oxadiazol-3-yl]phenyl] acetamide], the inhibition of growth at 20 ppm in assay [2] (setting [4]) was ≥ 80%.
On the same count and under the same terms, the result for `CC1(C)CC1C(=O)Nc1ccc(-c2noc(C(F)(F)F)n2)cc1` (stereo not shown) [Compound 2.12, 2,2-dimethyl-N-[4-[5-(trifluoromethyl)-1,2,4-oxadiazol-3-yl]phenyl] cyclopropane-carboxamide] reads ≥ 80%.
On the same count and under the same terms, the result for `C=CCON(C)C(=O)Nc1ccc(-c2noc(C(F)(F)F)n2)cc1` [Compound 2.21, 1-allyloxy-1-methyl-3-[4-[5-(trifluoromethyl)-1,2,4-oxadiazol-3-yl]phenyl]urea] reads ≥ 80%; that for `O=C(NCC(F)(F)F)Nc1ccc(-c2noc(C(F)(F)F)n2)cc1` [Compound 2.22, 1-(2,2,2-trifluoroethyl)-3-[4-[5-(trifluoromethyl)-1,2,4-oxadiazol-3-yl]phenyl]urea], ≥ 80%; that for `CN(C(=O)CC1CC1)c1ccc(-c2noc(C(F)(F)F)n2)cc1` [Compound 2.26, 2-cyclopropyl-N-methyl-N-[4-[5-(trifluoromethyl)-1,2,4-oxadiazol-3-yl]phenyl]acetamide], ≥ 80%.

Values taken from patent publication US20200022370A1, “MICROBIOCIDAL OXADIAZOLE DERIVATIVES” (SYNGENTA PARTICIPATIONS AG, priority 2016, published 2020).
